This note sets out measurements from patent publication US6955900B1, “Methods for producing polypeptide binding sites, monoclonal antibodies and compositions thereof” (The Scripps Research Institute, priority 1993, dated 2005).

The subject of assay [1] is M21 melanoma cells. As to the kind of experiment: adhesion of M21 melanoma cells to immobilized Fab or vitronectin. The format is cell-based, human. The method, then:
When Fab 9 that contained an RGD binding site was used in cell adhesion assays, it blocked the melanoma cell adhesion to immobilized vitronectin with an IC50 of 4 nM in contrast to the framework antibody pMT12 that had no effect on cell adhesion. […] This finding provides further evidence that Fab 9 is specific to beta 3 integrins. In similar assays, Fab 9 was compared to vitronectin in the ability to support cellular adhesion. Both proteins supported the binding of cells saturating at approximately 5 ug/ml of Fab or vitronectin.
This assay, performed as described in Example 4, was performed with whole cell adhesion assays using M21 melanoma cells because they adhere to RGD-ligands primarily via αvβ3. M21 cells were allowed to adhere to a concentration range from 1 to 10 ug/ml of immobilized Fab 9 and MTF-10.

In assay [2] the target is T1, αvβ3 (Homo sapiens, UniProt P05106+P06756).
T1 construct: human placentas were obtained, cut into small pieces and extracted; from tissue
T1 sequence (P06756 31-889 limits assumed): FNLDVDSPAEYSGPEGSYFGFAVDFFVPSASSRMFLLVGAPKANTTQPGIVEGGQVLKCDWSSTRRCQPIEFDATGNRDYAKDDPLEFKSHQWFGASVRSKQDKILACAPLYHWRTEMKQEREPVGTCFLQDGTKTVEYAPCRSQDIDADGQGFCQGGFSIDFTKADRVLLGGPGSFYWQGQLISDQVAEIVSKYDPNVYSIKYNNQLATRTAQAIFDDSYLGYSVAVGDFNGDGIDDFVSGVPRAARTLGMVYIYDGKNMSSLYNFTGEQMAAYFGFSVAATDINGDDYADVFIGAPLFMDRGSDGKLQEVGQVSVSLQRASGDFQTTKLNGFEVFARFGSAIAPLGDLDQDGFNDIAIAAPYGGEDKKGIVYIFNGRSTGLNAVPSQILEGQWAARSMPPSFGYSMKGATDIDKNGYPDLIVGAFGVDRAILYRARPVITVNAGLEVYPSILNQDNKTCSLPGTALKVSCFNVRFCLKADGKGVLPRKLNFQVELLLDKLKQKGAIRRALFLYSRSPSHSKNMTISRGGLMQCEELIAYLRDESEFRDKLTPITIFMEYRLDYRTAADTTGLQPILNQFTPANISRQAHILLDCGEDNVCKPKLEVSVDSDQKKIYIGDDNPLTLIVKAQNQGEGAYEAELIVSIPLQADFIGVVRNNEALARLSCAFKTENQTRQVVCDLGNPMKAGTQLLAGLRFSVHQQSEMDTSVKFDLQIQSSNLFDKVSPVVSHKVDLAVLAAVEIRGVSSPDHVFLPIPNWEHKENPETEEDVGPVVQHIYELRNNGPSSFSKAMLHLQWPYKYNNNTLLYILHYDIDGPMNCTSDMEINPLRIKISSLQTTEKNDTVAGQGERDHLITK
T1 sequence (P06756 891-1048 partner limits assumed): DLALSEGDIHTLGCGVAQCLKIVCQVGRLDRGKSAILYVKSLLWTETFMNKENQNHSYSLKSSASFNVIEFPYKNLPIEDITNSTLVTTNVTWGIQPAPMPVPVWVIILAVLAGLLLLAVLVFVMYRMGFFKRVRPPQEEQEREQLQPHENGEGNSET
T1 sequence (P05106 27-788): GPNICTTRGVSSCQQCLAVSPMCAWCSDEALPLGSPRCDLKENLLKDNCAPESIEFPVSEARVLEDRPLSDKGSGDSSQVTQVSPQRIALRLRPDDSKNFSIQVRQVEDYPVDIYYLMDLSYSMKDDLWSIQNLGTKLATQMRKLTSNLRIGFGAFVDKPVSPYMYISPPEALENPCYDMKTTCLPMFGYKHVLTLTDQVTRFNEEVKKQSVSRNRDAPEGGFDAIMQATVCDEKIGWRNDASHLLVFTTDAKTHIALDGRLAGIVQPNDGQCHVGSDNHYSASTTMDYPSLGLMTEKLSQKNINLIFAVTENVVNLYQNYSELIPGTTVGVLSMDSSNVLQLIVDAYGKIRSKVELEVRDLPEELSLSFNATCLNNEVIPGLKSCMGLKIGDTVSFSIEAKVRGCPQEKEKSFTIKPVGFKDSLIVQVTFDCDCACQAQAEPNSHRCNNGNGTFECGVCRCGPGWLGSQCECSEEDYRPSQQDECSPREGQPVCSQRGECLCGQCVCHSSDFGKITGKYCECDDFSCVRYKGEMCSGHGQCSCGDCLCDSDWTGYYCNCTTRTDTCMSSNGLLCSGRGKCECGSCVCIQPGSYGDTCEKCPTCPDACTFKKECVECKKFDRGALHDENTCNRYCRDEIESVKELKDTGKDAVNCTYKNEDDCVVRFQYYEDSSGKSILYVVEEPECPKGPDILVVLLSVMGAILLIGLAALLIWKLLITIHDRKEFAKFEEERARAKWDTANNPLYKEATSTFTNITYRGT
Put plainly: dissociation of 125I-ligand from purified αvβ3. The conditions noted are these: two hour dissociation after four hours binding. How it is done:
The binding of Fab 9 is shown as an example in this analysis, but its binding behavior was essentially identical to that of the MTF antibodies. The ability of ^125I-Fab 9 to dissociate from purified αvβ3 was compared to that of ^125I-vitronectin in purified ligand-receptor binding assays performed as described in Example 5B. Both ligands were incubated with purified αvβ3 for four hours. Then buffer containing radioligands was replaced with binding buffer lacking ligand to allow dissociation. An effort was also made to promote dissociation by adding 10 uM GRGDSP (SEQ ID NO 66) after the binding step. […] Following a two hour incubation to allow dissociation, buffer was removed and the amount of ^125I-ligand remaining bound to integrin was measured. The remaining bound ligand was compared to the amount of ligand bound at the beginning of the dissociation step.

For “vitronectin: natural high affinity ligand of αvβ3”, the “coating concentration at which supported cell binding saturates” value in assay [1] is reported as “approximately 5 ug/ml”. The “bound ligand that remained associated with αvβ3” value in assay [2] is “greater than 65%”.
